Results on three compounds are retold here after publication PMC10291556 (Journal of Medicinal Chemistry, 2023).

The subject of one series is MRC-5. As to the kind of experiment: MTT assay in non-cancerous fibroblasts, 72 h. The format is cell-based. Particulars: non-cancerous human fibroblasts, 72 h incubation, mean ± SD. The protocol:
Cells were treated with the tested compounds in a final volume of 200 μL/well. […] Calbiochem, Darmstadt, Germany) was added, and the cells were incubated for an additional 2–4 h. The medium was removed, and the insoluble formazan product was dissolved in 100 μL/well DMSO. […] The read values were converted to the percentage of control. […] All experiments were made in triplicate.
On the technique in general: Formazan colour is commonly taken as a measure of viable cells.

Series [1] concerns HeLa cells. The series is described as follows: Cellular accumulation of platinum (ICP-MS). It counts as cell-based, human. Conditions: for cellular uptake 0.1 μM/24 h: 0.1 μM complex; for cellular uptake 1 μM/6 h: 1 μM complex; for cellular uptake 10 μM/6 h: 10 μM complex. The procedure: Briefly, 3 × 10^6 cells were seeded in 100 mm culture dishes and grown overnight. The cells were exposed to the tested complexes at indicated concentrations for indicated periods. […] The pellets were digested using the microwave acid (HCl) digestion system (CEM Mars). The platinum quantity taken up by the cells was determined by inductively coupled plasma mass spectrometry (ICP–MS). All experiments were performed in triplicate.

Another series has as its system HeLa. The series is described as follows: MTT antiproliferative assay, 72 h. The format is cell-based, human. Particulars: MTT, 72 h incubation, mean ± SD; read-out: IC50 HeLa. The protocol: (§1) Cells were treated with the tested compounds in a final volume of 200 μL/well. […] Calbiochem, Darmstadt, Germany) was added, and the cells were incubated for an additional 2–4 h. The medium was removed, and the insoluble formazan product was dissolved in 100 μL/well DMSO. The absorbance was read at 570 nm (vs 620 nm) using an Absorbance Reader (SUNRISE TECAN SCHOELLER). The read values were converted to the percentage of control. […] All experiments were made in triplicate.

The test system of the next series is A2780cisR. As to the kind of experiment: MTT antiproliferative assay, 72 h. It counts as cell-based, human. Particulars: MTT, 72 h incubation, mean ± SD; read-out: IC50 A2780cisR. The procedure: as §1
For the next series, the system named is A2780. As to the kind of experiment: MTT antiproliferative assay, 72 h. The format is cell-based, human. Particulars: MTT, 72 h incubation, mean ± SD; read-out: IC50 A2780. The protocol:
as §1

The next series concerns HCT-116. The series is described as follows: MTT antiproliferative assay, 72 h. Particulars: MTT, 72 h incubation, mean ± SD; read-out: IC50 HCT-116. It counts as cell-based, human. The procedure: as §1
For the next series, the system named is MCF-7. As to the kind of experiment: MTT antiproliferative assay, 72 h. The format is cell-based, human. Conditions: MTT, 72 h incubation, mean ± SD; read-out: IC50 MCF-7. The procedure:
as §1

In another series the test system is MDA-MB-231. As to the kind of experiment: MTT antiproliferative assay, 72 h. The format is cell-based, human. Particulars: MTT, 72 h incubation, mean ± SD; read-out: IC50 MDA-MB-231. The protocol: as §1
The test system of series [2] is DNA isolated from HeLa cells. As to the kind of experiment: Pt associated with DNA isolated from treated HeLa cells. Particulars: 1 µM compound, 6 h, mean ± SD. The format is cell-based, human. The source says: page 16: Table S1: […] concentration of tested compounds for 6 ha. […] Figure S19: A. Representative histograms obtained by flow cytometric analysis of calreticulin exposure in HeLa cells treated with indicated compounds. B. An example of gating DAPI negative population. Only DAPI-negative cells were taken for the evaluation.

Series [3] can be described thus: Partition coefficient, shake-flask method. It counts as physicochemical. Conditions: octanol/water. The procedure:
The “shake flask” method was used to measure the partition coefficients (P) of platinum compounds. The compounds were dissolved in octanol-saturated water (OSW) containing 200 mM NaCl. […] After careful separation of the layers with a fine-tip pipet, the Pt content in individual phases was determined by flameless atomic absorption spectrometry. The partition coefficients were calculated as the concentration ratio of the compound in the octanol layer to that in the aqueous layer, log P = log([Pt]WSO/[Pt]OSW).

Series [4] relates to HeLa cells. The series is described as follows: Wound healing assay. It counts as cell-based, human. Conditions: 24 h, multiples of IC50,72h. The protocol:
Figure 7 (A–E) Wound healing assay. The monolayer of HeLa cells was scratched with a 10 μL tip, and a starving medium containing the tested complexes was added. The shots were taken at times 0 and 24 h. (A) Control, non-treated cells; (B) cells treated with complex 3; (C) cells treated with complex 4. […] (E) Evaluation of wound healing assay. Bars represent gap size vs. Control (100%), following a 24 h incubation with the investigated compounds. Light gray bars: complex 3; dark gray bars: complex 4; black bar: complex 2. (F) Re-adhesion assay. […] Following trypsinization, the cells were resuspended in Dulbecco’s modified Eagle medium (DMEM), counted, left to reconstitute adhesive membrane proteins for 30 min, and re-seeded at the density of 3× 10^4 cells/100 μL/well. After 30 min of incubation at 37 °C, the re-adhesion activity was determined as described in the Experimental Section. Data represents mean ± SD, n = 8; *p < 0.05, **p < 0.01, ***p < 0.001.
HeLa cells were grown close to confluence in 6-well plates in a complete medium, and then the medium was replaced with a serum-free medium [supplemented with 0.1% bovine serum albumin (BSA)], and the cells were incubated for an additional 24 h. The HeLa monolayers were scratched with a 10 μL pipet tip, and the cells were washed twice with PBS to remove peeled cells and treated with tested compounds at indicated concentrations. The scratched areas were shot immediately after the complex addition and then after 24 h with a Canon EOS 1200D camera attached to an Olympus CKX41 inverted microscope with a 10×/0.25 phase contrast objective. Digital images were taken by the QuickPHOTO MICRO 3.1 program (PROMICRA, Prague, Czech Republic) and processed with the TScratch analysis software (ETH Zürich, Switzerland). The cell’s ability to migrate into the open area was expressed as a percentage of control.

Series [5] relates to HeLa cells. The series is described as follows: Mitochondrial membrane potential (TMRE, flow cytometry). It counts as cell-based, human. Conditions: 10× IC50, 1 h, vs untreated control. The procedure:
Figure 4 Changes in the mitochondrial membrane potential Δψm in HeLa cells. The cells were treated with Pt compounds at the concentrations corresponding to 10× IC50 for 1 h and subsequently stained with TMRE. The fluorescence was measured by flow cytometry. Data represents mean ± SD from three independent experiments, *p < 0.01.
HeLa cells were seeded (6-well plates, 3 × 10^5 cells/well), grown overnight, and then treated with the tested compounds for 1 h. The medium was removed, and a fresh medium containing TMRE (Thermo Fisher Scientific) at a final concentration of […] in 500 μL was added. The cells were incubated for 30 min at 37 °C and then harvested using trypsin. TMRE fluorescence was measured with a fluorescence-activated cell sorting (FACS) Verse flow cytometer (Becton Dickinson), and the data were analyzed using the ModFit LT 4.1 (Verity Software House) software. The experiment was performed in triplicate.
Background: In flow cytometry, cells or beads pass a laser one at a time.

The test system of another series is COX-2 in HeLa cells. The series is described as follows: Western blotting of COX-2. It counts as cell-based, human. Particulars: 24 h, 1×, 3× IC50, Western blot. The procedure:
(B) Quantitative evaluation of Western blotting data; the relative expression of COX-2 normalized to GAPDH. Data represents the mean ± SD of two experiments. The stars indicate the statistical significance of difference vs control determined with the Student t-test (*p < 0.05, **p < 0.01, ***p < 0.001).
HeLa cells were seeded in 60 mm dishes at a density of 3 × 10^5 cells/dish and cultured for 20 h. The cells were then treated with the tested compounds at concentrations indicated in the text. After 24 h of treatment, the cells were scraped, washed, and pelleted. […] 4–20% SDS-PAGE (sodium dodecyl sulfate-polyacrylamide gel electrophoresis) (Mini-PROTEAN TGX Precast Gel) was used to resolve the proteins. After transferring to the polyvinylidene fluoride membrane, the proteins were detected using appropriate antibodies: anti-GAPDH antibody (mouse, Sigma-Aldrich), Anti-COX-2 (rabbit, Abcam), Anti-α-, β-, or γ-tubulin (all rabbit, Abcam), Anti-β-actin (mouse, Abcam), Goat Anti-Rabbit IgG(HRP) (Abcam; HRP = horseradish peroxidase), and Goat Anti-Mouse IgG(HRP) (ThermoFisher Scientific). SignalFire ECL Reagent (A + B) was used as a substrate for HRP, and the luminescence was recorded with Amersham Imager 680. The densities in the images were assessed with the Aida image analysis software.

Series [6] relates to HeLa cells. The series is described as follows: HMGB1 release (ELISA). The format is cell-based, human. Particulars: 1×, 2×, 3× IC50, 20 h. (In general: ELISA stands for enzyme-linked immunosorbent assay.)
Method: (B) Extracellular level of HMGB1. […] The data in panels A, B, and C are shown as a mean of 4–5 measurements ± SD. Statistical significance from untreated control was determined with the Student t-test (*p ≤ 0.05, **p ≤ 0.01, and ^#p ≤ 0.001).
HeLa cells were seeded in 24-well plates at a density of 10^4 cells/well and grown overnight. The medium was removed, and a fresh medium (DMEM, 1% BSA, no FBS) containing indicated concentrations of tested complexes was added (300 μL). Following a 20 h treatment, medium samples were withdrawn, and the HMGB1 content was determined using an HMGB1 ELISA Kit (IBL international) following the instructions for use. Cell counts in corresponding wells were determined using Automated Cell Counter (Bio-Rad). HMGB1 concentrations were normalized to cell counts and to the value of untreated control. The experiment was performed twice with duplicate readings.
Series [7] relates to HeLa cells. As to the kind of experiment: ATP secretion. It counts as cell-based, human. Conditions: 1× and 3× IC50, 24 h.
Method: (A) Extracellular ATP levels in HeLa cell supernatants.
HeLa cells were seeded in 24-well plates at a density of 10^4 cells/well, grown overnight, and then treated with the tested complexes for 24 h. Aliquots of culture medium samples were withdrawn, centrifugated (500g, 3 min), and processed with ATP Bioluminescence Assay Kit CLS II, Roche. Briefly, 50 μL of cell-free medium samples were added to a 96-well flat white plate, and an equal volume of luciferase reagent was added. The luminescence was measured immediately on a plate reader (SPARK, Tecan). The blank (no ATP) was subtracted from the raw data. ATP concentrations were obtained from the standard curve and normalized to cell counts and control. The data are shown as MEAN of 4–5 independent measurements.
Another series concerns COX in HeLa cells. The series is described as follows: COX activity assay (kit) in treated cells. The format is cell-based, human. Conditions: 24 h, 1× IC50,72h, vs untreated control. The procedure: The results are expressed relative to the COX activity of untreated control.
HeLa cells were seeded in 6-well plates at a density of 10^5 cells/well and incubated overnight. The cells were treated with the tested compounds at concentrations corresponding to 1× IC50. Following a 24 h treatment, the cells were lyzed with radioimmunoprecipitation assay (RIPA) buffer supplemented with proteinase inhibitors on ice for 10 min. The extracts were cleared with centrifugation (12,000g/5 min), and protein content was determined using Bradford assay. COX activity was determined with a COX Activity Assay Kit (Abcam). 6 μg of protein was used in the reaction. The experiment was set up according to the manufacturer’s instructions. The fluorescence (Ex/Em 535/587 nm) was read in a kinetic mode, and the COX inhibition was expressed as a percentage of the activity of the untreated control.

In series [8] the test system is HeLa cells. The series is described as follows: Calreticulin exposure (flow cytometry). It counts as cell-based, human. Conditions: 3× IC50, 16–18 h, DAPI-negative cells.
Method: (C) Calreticulin exposure to the cell surface. […] The surface calreticulin exposure was determined in 4′,6-diamidino-2-phenylindole dihydrochloride (DAPI)-negative cell population. Relative fluorescence intensity was calculated as the median fluorescence of the population of treated cells/median fluorescence of untreated control cells.
Following the treatment, the cells were harvested (trypsin), washed with FACS buffer (PBS, BSA 1%, and FBS 2%), and incubated with Alexa Fluor 488 Anti-Calreticulin antibody for 40 min at 4 °C. The buffer was removed (CFG, 300 g, 3 min) and replaced with FACS buffer containing DAPI (1 μg mL^–1, 20 min), and the cells were analyzed with flow cytometry (BD FACS Verse) and FCS Express 6 (DeNovo Software, Glendale, CA). Calreticulin fluorescence histograms were analyzed in the DAPI-negative (intact membrane) cell population.

The IC50 is the concentration that gives 50% inhibition.

Turning to `N.N.[Cl][Pt][Cl]` [cisplatin, reference compound], the IC50 was 7.3 ± 0.9 µM in the series with MRC-5; 15 ± 3 µM in the series with HeLa; 20 ± 2 µM with A2780cisR; 3.5 ± 0.6 µM in the series on A2780; 8 ± 1 µM in the series with HCT-116; 14 ± 3 µM in the series on MCF-7. In addition, the IC50 in the series with MDA-MB-231 was 22 ± 2 µM. In addition, the “cellular uptake 0.1 μM/24 h” value in the series on HeLa cells [1] amounted to 0.3 ± 0.1 ng Pt/10^6 cells. For the same compound, in the series with HeLa cells [1], the “cellular uptake 1 μM/6 h” value stood at 2.3 ± 0.3 ng Pt/10^6 cells. Also, the “cellular uptake 10 μM/6 h” value with HeLa cells [1] was found to be 10 ± 3 ng Pt/10^6 cells. Further, in series [2], the “amount of Pt associated with DNA” value turned out to be 2.8 ± 0.2 pg Pt/µg DNA.

For the compound `Cc1c(C)c2c3c4c1=CC=C[N]4[Pt]([Cl])([Cl])[N]3C=CC=2.N[C@H]1CCCC[C@@H]1N` [complex 2, Pt^IV56MeSSCl2], the “log P” value in [3] was “–2.1 ± 0.2”. The IC50 with MRC-5 came out at 2.1 ± 0.4 µM; in the series on HeLa, 2.9 ± 0.7 µM; with A2780cisR, 0.4 ± 0.08 µM; in the series on A2780, 0.39 ± 0.01 µM; with HCT-116 it was 1.6 ± 0.4 µM; with MCF-7, 5.9 ± 0.5 µM. Also, in the series with MDA-MB-231, the IC50 stood at 1.5 ± 0.4 µM. Also, in the series with HeLa cells [4], the “migration activity (wound closing)” value is reported as “less efficient in inhibting artificial wound closing”. Besides, the “cellular uptake 0.1 μM/24 h” value in the series with HeLa cells [1] was 2.2 ± 0.2 ng Pt/10^6 cells. The “cellular uptake 1 μM/6 h” value in the series with HeLa cells [1] was found to be 6.2 ± 0.3 ng Pt/10^6 cells. In addition, the “cellular uptake 10 μM/6 h” value in the series on HeLa cells [1] worked out at 47 ± 2 ng Pt/10^6 cells. Besides, the “mitochondrial membrane potential Δψm (TMRE fluorescence)” value in the series on HeLa cells [5] is recorded as “insignificant impact on the Δψm”. For the same compound, the “intracellular level of COX-2 protein” value in the series with COX-2 in HeLa cells is “markedly less effective”. For the same compound, the “amount of Pt associated with DNA” value in [2] amounted to 1.9 ± 0.1 pg Pt/µg DNA.

For `NCCNC(=O)Cc1ccccc1Nc1c(Cl)cccc1Cl` [enDCF, diclofenac amide], the IC50 in the series on MRC-5 is 58 ± 6 µM; in the series with HeLa it was 30 ± 2 µM; with HCT-116 it was 27 ± 4 µM; with MCF-7, 37 ± 4 µM; with MDA-MB-231 it was 32 ± 3 µM. In the series with HeLa cells [6], the HMGB1 secretion entry is recorded as “effective as well”. Also, in the series with HeLa cells [5], the “mitochondrial membrane potential Δψm (TMRE fluorescence)” value is listed as “The same effect”. The ATP secretion entry in the series with HeLa cells [7] is “effective as well”. In the series with COX in HeLa cells, the “inhibition of COX activity” value is “Inhibition of COX activity was also observed”. In addition, the externalization of calreticulin entry in the series with HeLa cells [8] is “effective as well”.
